Measurements reported in patent publication US8455543B2, “Platinum complexes and methods for inhibiting tumor cell proliferation” (University of South Florida, priority 2004, dated 2013).
pIC50: −log10 of the molar value. Where two headings read alike, the source gives them in different places. Each block holds one compound with its values, some of them ahead of it.

What was measured:
Test in all cases: MTT assay, growth inhibition of human tumor cells
Type in all cases: cell-based
[1] = tested on: Calu-1; conditions: Calu-1 cells, 4 days treatment, several values = separate determinations
[2] = tested on: Panc-1
[3] = tested on: A549
[4] = Homo sapiens, 96 h, MTT assay, Panc-1 cells, 4 days treatment, several values = separate determinations
[5] = MTT assay, Panc-1 cells, 4 days treatment, several values = separate determinations

Compound: O=c1[nH]cc(F)c(=O)[nH]1 [5-FU, 5-fluorouracil, reference compound]
pIC50 [2, 4]: 5.30 | pIC50 ([1]; Homo sapiens, 96 h): 3.60

Compound: NC(=O)NO [hydroxyurea, reference compound]
pIC50 [2, 4]: 5.89 | pIC50 ([1]; Homo sapiens, 96 h): < 3.60

Compound: cis-[Pt^IV(NH3)2Cl2NO2-salicylate] [CPA-19]
pIC50 [3]: 4.43 | pIC50 [2]: 4.70

Compound: [Cis-Pt IV(NH3)2(Cl)2(NO2) (5-FU)] [JP3]
pIC50 [2, 5]: 5.59

Compound: [Cis-Pt IV(NH3)2(Cl)2(NO2) (OP(-salicylate)(OH)O)] [JP6]
pIC50 [2]: 5.26

Results, then the compound that gave them:

pIC50 [1]: 4.89
Compound: cis-[Pt^IV(NH3)2Cl2NO2-5FU [CPA-14]

pIC50 [2, 5]: 5.64
Compound: Pt^IV(en) (HOHN—CO—NH2)(NO2) 5-FU [CPA-13]
